In PubChem BioAssay AID651940 (Sanford-Burnham Center for Chemical Genomics, 2012):
The source made the active and inactive calls.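 The calls were made as follows: active = IC50 below 50 µM, and active in both the human and murine receptor assays; inactive = the rest.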

Biological target: C-X-C chemokine receptor type 6 (Mus musculus) (UniProt Q9EQ16)
Assay: mouse CXCR6 receptor antagonists, SAR follow-up, selectivity assay for human CXCR6 antagonist project, cell-based, mouse ortholog, CHO-K1, luminescence (AID 651940)
Details: CHO-K1 mCXCR6 beta-arrestin PathHunter

C-X-C chemokine receptor type 6 (Mus musculus), sequence (Q9EQ16 whole entry, looked up): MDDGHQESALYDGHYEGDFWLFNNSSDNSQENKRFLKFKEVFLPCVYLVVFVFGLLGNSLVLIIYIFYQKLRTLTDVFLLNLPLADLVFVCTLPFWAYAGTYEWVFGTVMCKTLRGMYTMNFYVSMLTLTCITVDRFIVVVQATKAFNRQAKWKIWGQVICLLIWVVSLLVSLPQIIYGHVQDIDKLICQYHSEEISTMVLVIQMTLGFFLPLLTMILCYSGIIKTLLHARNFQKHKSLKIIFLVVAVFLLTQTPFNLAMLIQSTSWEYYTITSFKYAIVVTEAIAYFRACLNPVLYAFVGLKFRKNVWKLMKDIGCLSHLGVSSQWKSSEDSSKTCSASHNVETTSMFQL

| SMILES | IC50 |
| --- | --- |
| COc1ccc(NC(=O)CN2C3CCCC2CC(NC(=O)c2cc(OC)c(OC)c(OC)c2)C3)cc1 (configuration not stated) | > 79 µM (inactive) |
| COc1cc(C(=O)NC2CC3CCCC(C2)N3CC(=O)Nc2ccccc2)cc(OC)c1OC (configuration not stated) | > 79 µM (inactive) |
| COc1cc(C(=O)NC2CC3CCCC(C2)N3CC(=O)Nc2ccc(F)cc2)cc(OC)c1OC (configuration not stated) | > 79 µM (inactive) |
| COc1ccccc1NC(=O)CN1C2CCCC1CC(NC(=O)c1cc(OC)c(OC)c(OC)c1)C2 (configuration not stated) | > 79 µM (inactive) |
| COc1cc(C(=O)NC2CC3CCCC(C2)N3CC(=O)Nc2ccc(Cl)cc2)cc(OC)c1OC (configuration not stated) | > 79 µM (inactive) |
| COc1cc(C(=O)NC2CC3CCCC(C2)N3CC(=O)Nc2ccc(C)cc2)cc(OC)c1OC (configuration not stated) | inactive |
| COc1ccc(CN2C3CCCC2CC(NC(=O)c2cc(OC)c(OC)c(OC)c2)C3)cc1 (configuration not stated) | > 79 µM (inactive) |
